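All cell lines were grown in 96-well plates and treated with compound for 48 hours. GI50: concentration for 50% inhibition of growth.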 Active and inactive are the calls of the source. No stated cut-off is given here; in the data, active = GI50 up to about 1.1 µM and inactive = higher.
Tests used:
Assay in all cases: inhibition of tumour cell growth, NCI panel, 48 h
[1] = system: Hs-578T
[2] = system: HCC 2998
[3] = system: Malme-3M
[4] = system: KM12
[5] = system: A498
[6] = system: 786-0
[7] = system: NCI/ADR-RES
[8] = system: SK-MEL-28
[9] = system: UO-31
[10] = system: SK-MEL-5
[11] = system: OVCAR-4
[12] = system: U-251
[13] = system: HOP-62
[14] = system: MDA-N
[15] = system: T47D
[16] = system: MOLT-4
[17] = system: LOX IMVI
[18] = system: HL-60
[19] = system: MCF7

Measured: GI50

CC1(C)C2CCC(=O)C1C(OCc1ccccc1)C2 (centres undefined)
inactive: [1] > 100 µM | [2] > 100 µM | [3] > 100 µM | [4] > 100 µM | [5] > 100 µM | [6] > 100 µM | [7] > 100 µM | [8] > 100 µM | [9] > 100 µM | [10] 17.4 µM | [11] > 100 µM | [12] > 100 µM | [13] > 100 µM | [14] > 100 µM | [15] > 100 µM | [16] > 100 µM | [17] > 100 µM | [18] 67.3 µM | [19] > 100 µM

NC(=S)NN=C1Cc2ccccc2C1
inactive: [1] > 100 µM | [2] > 100 µM | [3] > 100 µM | [4] > 100 µM | [5] > 100 µM | [6] > 100 µM | [7] > 100 µM | [8] > 100 µM | [9] > 100 µM | [10] > 100 µM | [11] > 100 µM | [12] > 100 µM | [13] > 100 µM | [14] > 100 µM | [15] > 100 µM | [16] > 100 µM | [17] > 100 µM | [18] > 100 µM | [19] > 100 µM

COc1ccccc1N1CCN(Cn2c(=O)oc3cccnc32)CC1
inactive: [1] > 100 µM | [2] > 100 µM | [3] > 100 µM | [5] > 100 µM | [6] > 100 µM | [7] > 100 µM | [8] > 100 µM | [9] > 100 µM | [10] > 100 µM | [11] > 100 µM | [12] 90.2 µM | [13] > 100 µM | [14] > 100 µM | [15] > 100 µM | [16] > 100 µM | [17] > 100 µM | [18] > 100 µM | [19] > 100 µM

NC(=O)C[C@H](NC(=O)C1(NC(=O)[C@H](Cc2ccc(CP(=O)(O)O)cc2)NC(=O)C(=O)O)CCCCC1)C(=O)NCCCc1cccc2ccccc12
inactive: [1] > 10 µM | [2] > 10 µM | [3] > 10 µM | [4] > 10 µM | [5] > 10 µM | [6] > 10 µM | [7] > 10 µM | [8] > 10 µM | [9] > 10 µM | [10] > 10 µM | [11] > 10 µM | [12] > 10 µM | [13] > 10 µM | [14] > 10 µM | [15] > 10 µM | [16] > 10 µM | [17] > 10 µM | [18] > 10 µM | [19] > 10 µM

Cn1c(=O)c2c(ncn2CCNC(CO)C(O)c2ccc([N+](=O)[O-])cc2)n(C)c1=O (centres undefined)
inactive: [1] > 10 µM | [2] > 10 µM | [3] > 100 µM | [4] > 100 µM | [5] > 100 µM | [6] > 100 µM | [7] > 100 µM | [8] > 100 µM | [9] > 100 µM | [10] > 100 µM | [11] > 100 µM | [12] > 100 µM | [13] > 100 µM | [14] > 100 µM | [15] 5.64 µM | [16] > 100 µM | [17] > 100 µM | [18] > 100 µM | [19] > 100 µM

Cc1cc(-c2ccc(Cl)cc2)c(C#N)c(=S)n1C1OC(CO)C(O)C(O)C1O (centres undefined)
inactive: [1] > 100 µM | [2] > 100 µM | [3] > 100 µM | [4] > 100 µM | [5] > 100 µM | [6] > 100 µM | [7] > 100 µM | [8] > 100 µM | [10] > 100 µM | [11] > 100 µM | [13] > 100 µM | [14] > 100 µM | [15] 99.8 µM | [16] > 100 µM | [17] > 100 µM | [18] > 100 µM | [19] > 100 µM

CC(=O)OC(=C(C#N)C#N)c1nccnc1C(C)=O
inactive: [1] 4.44 µM | [2] > 20 µM | [3] 9.29 µM | [4] 4.98 µM | [5] > 20 µM | [6] > 20 µM | [7] > 20 µM | [8] 9.77 µM | [9] > 20 µM | [10] 6.32 µM | [11] > 20 µM | [12] 6.07 µM | [14] 6.17 µM | [15] > 20 µM | [16] > 20 µM | [17] > 20 µM | [18] 7.01 µM | [19] > 20 µM

Source: ChEMBL document CHEMBL1201862, “PubChem BioAssay data set” (2004)
